Source: ChEMBL document CHEMBL1151975, “Isolation, structure, and antibacterial activities of lucensimycins D-G, discovered from Streptomyces lucensis MA7349 using an antisense strategy” (2009)
Converted amounts (≈) assume the structure as drawn. The source made the active and inactive calls. No cut-off for these calls is given here.

Tests used:
Haemophilus influenzae = test: Antimicrobial activity against Haemophilus influenzae at 250 ug/ml; format: functional, organism-based
Candida albicans = test: Antimicrobial activity against Candida albicans at 250 ug/ml; format: functional, organism-based
Bacillus subtilis = test: Antimicrobial activity against Bacillus subtilis at 250 ug/ml; format: functional, organism-based
Enterococcus faecalis = test: Antimicrobial activity against Enterococcus faecalis at 250 ug/ml; format: functional, organism-based
Streptococcus pneumoniae = test: Antimicrobial activity against Streptococcus pneumoniae CL 2883; format: functional
Escherichia coli = test: Antimicrobial activity against Escherichia coli at 250 ug/ml; format: functional, organism-based
Staphylococcus aureus [1] = test: Antimicrobial activity against Staphylococcus aureus Smith at 250 ug/ml; format: functional, organism-based
Staphylococcus aureus [2] = test: Antimicrobial activity against Staphylococcus aureus EP167 at 0.5 mg/ml by two-plate assay; format: functional, organism-based
Staphylococcus aureus [3] = test: Antimicrobial activity against Staphylococcus aureus bearing antisense rpsD gene by two-plate assay; format: functional
Streptomyces noursei = test: Antimicrobial activity against Streptomyces albulus MJ202-72F3; format: functional
Staphylococcus aureus [4] = test: Antimicrobial activity against Staphylococcus aureus Smith; format: functional

SMILES | Activity (Haemophilus influenzae) | Activity (Candida albicans) | Activity (Bacillus subtilis) | Activity (Enterococcus faecalis) | Activity (Streptococcus pneumoniae) | Activity (Escherichia coli) | Activity (Staphylococcus aureus [1]) | Activity (Staphylococcus aureus [2]) | inhibition zone (IZ) (Staphylococcus aureus [3]) | MIC (Streptococcus pneumoniae) | MIC (Streptomyces noursei) | MIC (Staphylococcus aureus [4])
C=C(OC(=O)[C@@H]1C(=O)[C@@]2(C)[C@@H](C=C[C@H]3[C@H](O)[C@@H](C)[C@H](OC(C)=O)C[C@@H]32)C[C@H]1/C=C/C=C/C=C/C(=O)O)C(=O)O | inactive | inactive | inactive | inactive | inactive | inactive | inactive | – | – | – | – | –
C=C1OC(=O)[C@@]2(C1=O)C(=O)[C@@]1(C)[C@@H](C=C[C@H]3[C@H](O)[C@@H](C)[C@H](OC(C)=O)C[C@@H]31)C[C@H]2/C=C/C=C/C=C/C(=O)O [LUCENSIMYCIN A] | inactive | inactive | inactive | inactive | inactive | inactive | inactive | Active | 12 mm | – | – | –
CC(=O)N[C@H](CSC[C@@H]1OC(=O)[C@@]2(C1=O)C(=O)[C@@]1(C)[C@@H](C=C[C@H]3[C@H](O)[C@@H](C)[C@H](OC(C)=O)C[C@@H]31)C[C@H]2/C=C/C=C/C=C/C(=O)O)C(=O)N[C@H]1[C@@H](O[C@@H]2[C@@H](O)[C@H](O)[C@@H](O)[C@H](O)[C@@H]2O)O[C@@H](CO)[C@@H](O)[C@@H]1O | inactive | inactive | inactive | inactive | inactive | inactive | inactive | Active | – | – | – | –
CC(=O)N[C@H](CSC[C@@H]1OC(=O)[C@@]2(C1=O)C(=O)[C@@]1(C)[C@@H](C=C[C@H]3[C@H](O)[C@@H](C)[C@H](OC(C)=O)C[C@@H]31)C[C@H]2/C=C/C=C/C=C/C(=O)O)C(=O)O [LUCENSIMYCIN D] | – | – | – | – | – | – | inactive | – | 12 mm | 250 µg/mL (≈ 363 µM) | – | –
CCC(O)C(C)/C=C/C=C/C(O)CC1C=CC2CC(C)CC(C)C2C1(C)C(=O)C1=C(O)C(O)NC1=O (stereo not drawn) [DELAMINOMYCIN A] | – | – | – | – | – | – | – | – | – | – | 25 µg/mL (≈ 49.8 µM) | –
CC(=O)N[C@H](CSC[C@H]1OC(=O)[C@@]2(C1=O)C(=O)[C@@]1(C)[C@@H](C=C[C@H]3[C@H](O)[C@@H](C)[C@H](OC(C)=O)C[C@@H]31)C[C@H]2/C=C/C=C/C=C/C(=O)O)C(=O)N[C@H]1[C@@H](O[C@@H]2[C@@H](O)[C@H](O)[C@@H](O)[C@H](O)[C@@H]2O)O[C@@H](CO)[C@@H](O)[C@@H]1O | inactive | inactive | inactive | inactive | inactive | inactive | inactive | Active | – | – | – | –
CCC(O)C(C)/C=C/C=C/C(O)CC1C=CC2CC(C)CC(C)C2C1(C)C(=O)C1=C(O)CNC1=O (stereo not drawn) [DELAMINOMYCIN C] | – | – | – | – | – | – | – | – | – | – | 25 µg/mL (≈ 51.5 µM) | –
CC(=O)O[C@@H]1C[C@H]2[C@@H](C=C[C@H]3C[C@@H](/C=C/C=C/C=C/C(=O)O)[C@@]4(C(=O)O[C@@H](CO)C4=O)C(=O)[C@@]32C)[C@H](O)[C@H]1C | inactive | inactive | inactive | inactive | inactive | inactive | inactive | – | – | – | – | –
CCC(O)C(C)/C=C/C=C/C(O)CC1C=CC2CC(C)CC(C)C2C1(C)C(=O)C1=C(O)C(OC)NC1=O (stereo not drawn) [DELAMINOMYCIN B] | – | – | – | – | – | – | – | – | – | – | 25 µg/mL (≈ 48.5 µM) | –
CC(=O)N[C@H](CSC[C@H]1OC(=O)[C@@]2(C1=O)C(=O)[C@@]1(C)[C@@H](C=C[C@H]3[C@H](O)[C@@H](C)[C@H](OC(C)=O)C[C@@H]31)C[C@H]2/C=C/C=C/C=C/C(=O)O)C(=O)O [LUCENSIMYCIN E] | – | – | – | – | – | – | – | – | 12 mm | 8 µg/mL (≈ 11.6 µM) | – | 32 µg/mL (≈ 46.5 µM)
